Measured values reported in patent US20220175787A1, “PATIENT SELECTION FOR ENHANCEMENT OF ANTI-TUMOR IMMUNITY IN CANCER PATIENTS” (G1 Therapeutics Inc., priority 2019, published 2022).

Legend:
[1] = test system: PD-L1 positive or negative TNBC tumors; assay: G1T28-04 overall survival by PD-L1 tumor status (Ventana SP142); format: in vivo, human; conditions: p=0.005
Experimental: Patient tumors from the G1T28-04 clinical trial described in Example 1 were characterized based on PD-L1 expression scored as negative or positive if <1% or ≥1% of the total tumor area contained PD-L1-labelled immune cells, respectively, using the Ventana SP142 assay. Association of PD-L1 expression with antitumor efficacy was assessed using proportional hazards regression. The groups are divided as follows: Group 1 (gemcitabine+carboplatin only on days 1 and 8 in a 21-day cycles), Group 2 (gemcitabine+carboplatin+trilaciclib on days 1 and 8 in a 21 day cycle), and Group 3 (gemcitabine+carboplatin on days 2 and 9+trilaciclib on days 1, 2, 8, and 9 in a 21-day cycle).

[2] = test system: T-cell clones (T-cell receptor β sequences); assay: Phase 2 NCT03041311 (E/P/A with or without trilaciclib): TCRB differential abundance analysis in whole blood; format: in vivo, human; conditions: for T-cell clonal expansion in responders: trilaciclib responders vs placebo responders and vs trilaciclib non-responders (FIG. 12)
Experimental: (§1) A phase 2 study of carboplatin, etoposide, and atezolizumab with or without trilaciclib in patients with untreated extensive stage small cell lung cancer was initiated (Clinicaltrials.gov identifier NCT03041311). […] a 21-day induction phase and a 21-day maintenance phase. Four induction phase cycles were completed prior to the initiation of the maintenance phase cycle.
In the induction phase, patients received trilaciclib (240 mg/m2 diluted in 250 mL D5W or sodium chloride solution 0.9%) or placebo (250 mL of D5W or sodium chloride solution 0.9%) administered IV once daily on days 1 to 3 of a 21-day cycle of each etoposide/carboplatin/atezolizumab (E/P/A) therapy cycle (up to 4 cycles in total). […] Atezolizumab (1200 mg) in 250 mL sodium chloride solution 0.9% was administered as an IV infusion on day 1 of each 21-day cycle in both the induction and maintenance phases. Atezolizumab was infused over 60 minutes for the first administration and, if tolerated, all subsequent infusions were delivered over 30 minutes. Atezolizumab was administered following the completion of administration of Compound I or placebo, etoposide, and carboplatin.
Analysis of the TCRB locus in blood samples was performed to identify biomarkers of immune response and immunomodulatory activity between the trilaciclib arm and the placebo arm. All samples were sequenced using a 1-rxn TCRB Assay. The number of expanded T-cell clones was determined by the differential abundance analysis of T-cell receptor β sequences in whole blood from patients at after induction and prior to starting maintenance versus baseline.

[3] = test system: TNBC classified C2 IFN-γ Dominant or not; assay: G1T28-04 survival by Thorsson Six Class Immune Signature; format: in vivo, human; conditions: TNBC classified as C2 IFN-γ Dominant; Groups 2+3 (Group 4) vs Group 1; p=0.036
Description: Tumor samples from patients participating in the clinical trial (Clinical trials.gov identifier NCT02978716) described in Example 1 where assayed by Q^2 Solutions (Morrisville, N.C.) to determine their Six Class Immune Classification as described in Thorsson V, et al. “The Immune Landscape of Cancer.” Immunity, […], 2018, pp. 812-830. doi: 10.1016/j.immuni.2018.03.023 (incorporated herein by reference in its entirety).
Briefly, a six-step procedure was implemented to apply the Thorsson et al. classification to 89 pre-treatment triple negative breast cancer samples secured in the clinical trial described in Example 1. Following RNAseq data procurement, the data was cleaned and homogenized by reconciling gene and sample names across data sources. […] In short, samples in the resulting TCGA expression data were randomly down-sampled to more closely reflect the abundance of PAM50 classes within the clinical trial data (previously derived, see Example 1, Table 7). […]
Survival and response rates between treatment groups within pre-defined immune response groups were determined using a series of pair-wise, two-group tests based on the data derived in the G1T28-04 clinical trial described in Example 1. Additionally, examination of differences in survival and response rates between different immune response categories within a single treatment group were analyzed. […]

[4] = test system: TNBC tumors categorized as CDK4/6 independent, dependent or indeterminate; assay: G1T28-04 subgroup analysis by CDK4/6 dependency signature (PAM50, Lehmann)
Description: Using two established signatures (Prosigna Breast Cancer Prognostic Gene Signature Assay [PAM50] and Lehmann triple-negative breast cancer type 1-4), patient tumors were characterized as CDK4/6 independent, dependent, or indeterminate. […] Because their reliance on the CDK4/6 pathway for proliferation is either unknown or heterogeneous, the remaining PAM50 signature groups (including HER2, normal-like, luminal A, and luminal B) are categorized as CDK4/6 indeterminate.
To address the theoretical risk that trilaciclib could decrease antitumor activity in patients with CDK4/6 dependent tumors by arresting CDK4/6-dependent tumor cells during chemotherapy, an additional prespecified subgroup analysis of the antitumor activity endpoints (objective response, progression-free survival, and overall survival) using two established signatures (PAM50 and Lehmann triple-negative breast cancer type 1-4) was performed to characterize patient tumors as CDK4/6 independent, dependent, or indeterminate.

[5] = test system: TNBC with high or low Ayers immune signature score; assay: G1T28-04 survival by Ayers IFN-γ Signature / Expanded Immune Signature score; format: in vivo, human; conditions: Groups 2+3 (Group 4) vs Group 1
Experimental: Tumor samples from patients participating in the clinical trial described in Example 1 where assayed by Q^2 Solutions (Morrisville, N.C.) to determine their Ayers Immune Scores according to Ayers et al., IFN-γ-related mRNA Profile Predicts Clinical Response to PD-1 Blockade, J Clin Invest. 2017127(8)2930-2940. The data was processed using RNA Access, and FPKM normalization prior to log 10 transformation and averaging was performed.
89 samples were analyzed. The calculated signature score for both the IFN-γ Signature and Expanded Immune Signature were unimodel in distribution, and the median score was used to define the “High” and “Low” categories.
Survival and response rates between treatment groups within pre-defined immune response groups were determined using a series of pair-wise, two-group tests based on the data derived in the G1T28-04 clinical trial described in Example 1. Additionally, examination of differences in survival and response rates between different immune response categories within a single treatment group were analyzed.
Kaplan-Meier curves were generated to visualize the overall survival and progression free survival among groups (see FIGS. 8C-8F and 9A-9D). […]

CD8+ T cells = format: cell-based, human; conditions: mTNBC patients
[6] = test system: extensive stage small cell lung cancer; assay: Phase 2 NCT03041311: overall survival by newly expanded clone fraction; format: in vivo, human; conditions: SCLC patients on E/P/A above the newly expanded clone fraction median; p=0.04
Experimental: as §1
. […] Atezolizumab (1200 mg) in 250 mL sodium chloride solution 0.9% was administered as an IV infusion on day 1 of each 21-day cycle in both the induction and maintenance phases. Atezolizumab was infused over 60 minutes for the first administration and, if tolerated, all subsequent infusions were delivered over 30 minutes. Atezolizumab was administered following the completion of administration of Compound I or placebo, etoposide, and carboplatin.

SMILES: CN1CCN(c2ccc(Nc3ncc4cc5n(c4n3)C3(CCCCC3)CNC5=O)nc2)CC1 [trilaciclib, 2′-((5-(4-methylpiperazin-1-yl)pyridin-2-yl)amino)-7′, 8′-dihydro-6′H-spiro(cyclohexane-1,9′-pyrazino(1′,2′:1,5)pyrrolo(2,3-d)pyrimidin)-6′-one]
- Overall survival compared with patients who did not receive trilaciclib [1]: statistically significant overall survival
- Number of expanded T-cell clones ([2]; SCLC patients on E/P/A, trilaciclib vs E/P/A only, after induction vs baseline, P=0.01, FIG. 11): significantly higher
- Number of newly expanded T-cell clones in responders ([2]; SCLC, E/P/A, responders receiving trilaciclib vs without, p=0.001, FIG. 13): more newly expanded clones
- Fraction of newly expanded clones versus all expanded clones in responders ([2]; SCLC, E/P/A, responders receiving trilaciclib vs without, p=0.001, FIG. 14): significantly increased
- T-cell clonal expansion in responders ([2]; SCLC, E/P/A): more T-cell clonal expansion
- T-cell clonal expansion in responders ([2]; SCLC, E/P/A, listed as Trilaciclib): more clonal expansion
- Overall survival compared with Group 1 (not receiving trilaciclib) [3]: significantly improved overall survival
- Effect of including trilaciclib on chemotherapy efficacy ([4]; TNBC with variable or CDK4/6 dependent tumor (PAM50 Other or Lehmann LAR)): did not antagonize chemotherapy efficacy
- Effect of including trilaciclib on chemotherapy efficacy ([4]; TNBC with variable or CDK4/6 independent tumor (PAM50 Basal-Like or Lehmann Other)): did not antagonize chemotherapy efficacy
- Overall survival compared with Group 1 (not receiving trilaciclib) ([5]; TNBC with high Ayers Expanded Immune Signature score): significantly improved overall survival
- Overall survival compared with Group 1 (not receiving trilaciclib) ([5]; TNBC with high Ayers IFN-γ Signature score, p=0.0194): significantly improved overall survival
- Lymphocyte counts and T-cell activation (CD8+ T cells; addition of trilaciclib to gemcitabine and carboplatin): did not preserve lymphocyte counts or enhance T-cell activation
- Frequency of CD8+ T cells producing IFN-γ after ex-vivo stimulation (CD8+ T cells; GC plus trilaciclib vs group 1 (FIG. 5)): higher frequency
- OS HR (trilaciclib versus placebo) [6]: 0.34
